Laboratory results from patent publication US7803930B2, “Antisense modulation of apolipoprotein B-expression” (Isis Pharmaceuticals, Inc., priority 2002, dated 2010).
In the oligonucleotide strings, read from the 5' end, every base follows the letter of its sugar. An asterisk marks phosphorothioate; unmarked linkages are phosphodiester. Other units and linkages are bracketed, terminal groups are in braces. A string of capitals states the bases alone. e = 2'-O-(2-methoxyethyl) (MOE); [5mC] = 5-methylcytosine; d = 2'-deoxy (DNA)

System: human apolipoprotein B mRNA
Test: Inhibition of human apolipoprotein B mRNA levels in HepG2 cells, quantitative real-time PCR
Format: cell-based
Details: HepG2 cells treated with 150 nM of compound; averages from two experiments; quantitative real-time PCR
Summary of the method: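 HepG2 cells at 80% confluency were transfected with antisense oligonucleotide using 3.75 μg/mL Lipofectin in Opti-MEM for 4-7 h and harvested 16-24 h after treatment. Apolipoprotein B mRNA was measured by real-time RT-PCR and normalized to GAPDH or RiboGreen total RNA. Percent inhibition came from untreated-control standard curves.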

Substance	% INHIB (inhibition of human apolipoprotein B mRNA levels) [%]
271039 (eT*eA*eG*eA*eG*dG*d[5mC]*dT*dA*dA*d[5mC]*dG*dT*dA*d[5mC]*e[5mC]*eA*eT*e[5mC]*eT; antisense) [compound 271039]	4
271041 (e[5mC]*e[5mC]*eA*eT*eA*dT*d[5mC]*d[5mC]*dA*dT*dG*d[5mC]*d[5mC]*d[5mC]*dA*e[5mC]*eG*eG*eT*eG; antisense) [compound 271041]	37
271042 (eA*eG*eT*eT*eT*d[5mC]*d[5mC]*dT*d[5mC]*dA*dT*d[5mC]*dA*dG*dA*eT*eT*e[5mC]*e[5mC]*e[5mC]; antisense) [compound 271042]	57
271043 (e[5mC]*e[5mC]*e[5mC]*eA*eG*dT*dG*dG*dT*dA*d[5mC]*dT*dT*dG*dT*eT*eG*eA*e[5mC]*eA; antisense) [compound 271043]	68
271044 (e[5mC]*e[5mC]*e[5mC]*eA*eG*dT*dG*dG*dT*dG*d[5mC]*d[5mC]*dA*d[5mC]*dT*eG*eG*e[5mC]*eT*eG; antisense) [compound 271044]	22
271045 (eG*eT*e[5mC]*eA*eA*d[5mC]*dA*dG*dT*dT*d[5mC]*d[5mC]*dT*dG*dG*eT*eA*e[5mC]*eA*eG; antisense) [compound 271045]	19
271046 (e[5mC]*e[5mC]*e[5mC]*eT*eA*dG*dT*dG*dT*dA*dT*dA*dT*d[5mC]*d[5mC]*e[5mC]*eA*eG*eG*eT; antisense) [compound 271046]	61
271048 (e[5mC]*eT*eG*eA*eA*dG*dA*dT*dT*dA*d[5mC]*dG*dT*dA*dG*e[5mC]*eA*e[5mC]*e[5mC]*eT; antisense) [compound 271048]	7
271049 (eG*eT*e[5mC]*e[5mC]*eA*dG*d[5mC]*d[5mC]*dA*dA*d[5mC]*dT*dA*dT*dA*e[5mC]*eT*eT*eG*eG; antisense) [compound 271049]	54
271050 (e[5mC]*e[5mC]*eT*eG*eG*dA*dG*d[5mC]*dA*dA*dG*d[5mC]*dT*dT*d[5mC]*eA*eT*eG*eT*eA; antisense) [compound 271050]	42
281586 (eT*eG*eG*eA*e[5mC]*dA*dG*dA*d[5mC]*d[5mC]*dA*dG*dG*d[5mC]*dT*eG*eA*e[5mC]*eA*eT; antisense) [compound 281586]	80
281587 (eA*eT*eG*eT*eG*dT*dA*d[5mC]*dT*dT*d[5mC]*d[5mC]*dG*dG*dA*eG*eG*eT*eG*e[5mC]; antisense) [compound 281587]	77
281588 (eT*e[5mC]*eT*eT*e[5mC]*dA*dG*dG*dA*dT*dG*dA*dA*dG*d[5mC]*eT*eG*e[5mC]*eA*eG; antisense) [compound 281588]	80
281589 (eT*e[5mC]*eA*eG*e[5mC]*dA*dA*dG*dG*d[5mC]*dT*dT*dT*dG*d[5mC]*e[5mC]*e[5mC]*eT*e[5mC]*eA; antisense) [compound 281589]	90
281590 (e[5mC]*eT*eG*e[5mC]*eT*dT*d[5mC]*d[5mC]*d[5mC]*dT*dT*d[5mC]*dT*dG*dG*eA*eA*eT*eG*eG; antisense) [compound 281590]	84
281591 (eT*eG*e[5mC]*e[5mC]*eA*d[5mC]*dA*dT*dT*dG*d[5mC]*d[5mC]*d[5mC]*dT*dT*e[5mC]*e[5mC]*eT*e[5mC]*eG; antisense) [compound 281591]	90
281592 (eG*e[5mC]*eT*eG*eA*dT*d[5mC]*dA*dG*dA*dG*dT*dT*dG*dA*e[5mC]*eA*eA*eG*eG; antisense) [compound 281592]	56
281593 (eT*eA*e[5mC]*eT*eG*dA*d[5mC]*dA*dG*dG*dA*d[5mC]*dT*dG*dG*e[5mC]*eT*eG*e[5mC]*eT; antisense) [compound 281593]	93
281594 (eG*eA*eT*eG*eG*d[5mC]*dT*dT*d[5mC]*dT*dG*d[5mC]*d[5mC]*dA*d[5mC]*eA*eT*eG*e[5mC]*eT; antisense) [compound 281594]	74
281595 (eG*eA*eT*eG*eT*dG*dG*dA*dT*dT*dT*dG*dG*dT*dG*e[5mC]*eT*e[5mC]*eT*e[5mC]; antisense) [compound 281595]	76
281596 (eT*eG*eA*e[5mC]*eT*dG*d[5mC]*dT*dT*d[5mC]*dA*dT*d[5mC]*dA*d[5mC]*eT*eG*eA*eG*eG; antisense) [compound 281596]	77
281597 (eG*eG*eT*eA*eG*dG*dT*dG*dA*d[5mC]*d[5mC]*dA*d[5mC]*dA*dT*e[5mC]*eT*eA*eT*e[5mC]; antisense) [compound 281597]	36
281598 (eT*e[5mC]*eG*e[5mC]*eA*dG*d[5mC]*dT*dG*d[5mC]*dT*dG*dT*dG*d[5mC]*eT*eG*eA*eG*eG; antisense) [compound 281598]	70
281599 (eT*eT*e[5mC]*e[5mC]*eA*dA*dT*dG*dA*d[5mC]*d[5mC]*d[5mC]*dG*d[5mC]*dA*eG*eA*eA*eT*e[5mC]; antisense) [compound 281599]	74
281600 (antisense eG*eA*eT*e[5mC]*eA*dT*d[5mC]*dA*dG*dT*dG*dA*dT*dG*dG*e[5mC]*eT*eT*eT*eG) [compound 281600]	52
281601 (antisense eA*eG*e[5mC]*e[5mC]*eT*dG*dG*dA*dT*dG*dG*d[5mC]*dA*dG*d[5mC]*eT*eT*eT*e[5mC]*eT) [compound 281601]	83
281602 (antisense eG*eT*e[5mC]*eT*eG*dA*dA*dG*dA*dA*dG*dA*dA*d[5mC]*d[5mC]*eT*e[5mC]*e[5mC]*eT*eG) [compound 281602]	84
281603 (antisense eT*eA*eT*e[5mC]*eT*dG*d[5mC]*d[5mC]*dT*dG*dT*dG*dA*dA*dG*eG*eA*e[5mC]*eT*e[5mC]) [compound 281603]	82
281604 (antisense e[5mC]*eT*eG*eA*eG*dT*dT*d[5mC]*dA*dA*dG*dA*dT*dA*dT*eT*eG*eG*e[5mC]*eA) [compound 281604]	78
281605 (antisense e[5mC]*eT*eT*e[5mC]*e[5mC]*dA*dA*dG*d[5mC]*d[5mC]*dA*dA*dT*d[5mC]*dT*e[5mC]*eG*eA*eT*eG) [compound 281605]	82

Same assay, conditions: Table 12; HepG2 cells, 150 nM; averages from two experiments

Substance	% INHIB [%]
271040 (eG*eT*e[5mC]*e[5mC]*eT*dT*d[5mC]*dA*dT*dA*dT*dT*dT*dG*d[5mC]*e[5mC]*eA*eT*e[5mC]*eT; antisense) [compound 271040]	0
271047 (e[5mC]*e[5mC]*eT*e[5mC]*e[5mC]*d[5mC]*dT*d[5mC]*dA*dT*dG*dA*dA*d[5mC]*dA*eT*eA*eG*eT*eG; antisense) [compound 271047]	32
